The text below walks through data of US8076489B2, “5-hydroxy-benzothiazole derivatives having beta-2-adrenoreceptor agonist activity” (Novartis AG, priority 2004, dated 2011).

Read-outs that look alike come from different tables or passages of the source.

For assay [1], the system named is guinea pig tracheal strip. In words: guinea-pig tracheal strip in vitro assay (duration of action). It counts as cell-based. The source says:
(§1) Compounds of formulae IX are known or may be prepared using procedures that are known or are analogous to those hereinafter described in the Examples. Compounds of formula I in free, salt or solvate form are useful as pharmaceuticals. Accordingly the invention also provides a compound of formula I in free, salt or solvate form for use as a pharmaceutical. The compounds of formula I in free, salt or solvate form, hereinafter referred to alternatively as “agents of the invention”, have good β2-adreno-receptor agonist activity. The β2 agonist activity, onset of action and duration of action of the agents of the invention may be tested using the guinea pig tracheal strip in vitro assay according to the procedure of R. A. Coleman and A. T. Nials, J. Pharmacol. Methods 1989, 21, 71. The binding potency and selectivity for the β2-adrenoreceptor relative to the β1-adrenoreceptor can be measured by a classical filtration binding assay according to the procedure of Current Protocols in Pharmacology (S. J. Enna (editor-in-chief) et al, John Wiley & Son, Inc, 1998), or by cAMP determination in cells expressing β2- or β1-adreno-ceptor, according to the procedure of B. January et al, Brit. J. Pharmacol. 1998, 123, 701.

Assay [2] has as its target β2-adrenoreceptor (Homo sapiens, UniProt P07550). The experiment in a line: classical filtration binding assay, β2 binding potency.
Text: as §1
Many of the compounds have binding selectivities for the β2-adrenoreceptor relative to the β1-adrenoreceptor from 1.5 to 500.

The mark [3] stands for this setting: classical filtration binding assay, read-out: β2 binding potency, Ki.

β2-adrenoreceptor, sequence (P07550 whole entry, species assumed): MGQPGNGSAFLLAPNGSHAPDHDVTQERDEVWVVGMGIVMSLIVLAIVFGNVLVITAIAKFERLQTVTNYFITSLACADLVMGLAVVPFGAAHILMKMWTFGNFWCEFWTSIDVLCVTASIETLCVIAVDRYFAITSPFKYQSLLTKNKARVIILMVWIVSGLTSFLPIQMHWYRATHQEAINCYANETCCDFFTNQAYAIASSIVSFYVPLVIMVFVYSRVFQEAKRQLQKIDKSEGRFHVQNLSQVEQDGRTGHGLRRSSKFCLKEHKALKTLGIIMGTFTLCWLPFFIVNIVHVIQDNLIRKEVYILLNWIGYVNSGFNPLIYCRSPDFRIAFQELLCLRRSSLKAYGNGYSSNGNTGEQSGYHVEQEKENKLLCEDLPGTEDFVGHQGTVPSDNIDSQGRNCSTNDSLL

On to `CC(C)(Cc1ccccc1)NC[C@H](O)c1cc(O)cc2[nH]c(=O)sc12` [Example 1, (R)-7-[2-(1,1-Dimethyl-2-phenyl-ethylamino)-1-hydroxy-ethyl]-5-hydroxy-3H-benzothiazol-2-one], for which the “T(50%) time for inhibition of contraction to decay to 50% of its maximum value” in assay [1] (100 nM concentration) is more than 672 min. As to `CC(NCC(O)c1cc(O)cc2[nH]c(=O)sc12)C1CCCCC1` (stereo not shown) [Example 2], the Ki in assay [2] (setting [3]) turned out to be 61 nM. As to `CCCCOc1ccc(CC(C)(C)NCC(O)c2cc(O)cc3[nH]c(=O)sc23)cc1` (stereo not shown) [Example 4], the affinity in assay [2] corresponds to a Ki of 27 nM. For the compound `CC(CCc1ccccc1)NCC(O)c1cc(O)cc2[nH]c(=O)sc12` (stereo not shown) [Example 9], the Ki in assay [2] (setting [3]) worked out at 16 nM.

For the compound `O=c1[nH]c2cc(O)cc(C(O)CNC3CCCC3C3CCCC3)c2s1` (stereo not shown) [Example 14], the Ki in assay [2] (setting [3]) stood at 56 nM. On to `O=c1[nH]c2cc(O)cc(C(O)CNC3CCCC3OCc3ccccc3)c2s1` (stereo not shown) [Example 17], for which the Ki in assay [2] (setting [3]) amounted to 2 nM. As for `CN(C)c1ccc(CC(C)(C)NC[C@@H](O)c2cc(O)cc3[nH]c(=O)sc23)cc1` [Example 18, (S)-7-{2-[2-(4-Dimethylamino-phenyl)-1,1-dimethyl-ethylamino]-1-hydroxy-ethyl}-5-hydroxy-3H-benzothiazol-2-one], in assay [1] (10 nM concentration), the “T(50%) time for inhibition of contraction to decay to 50% of its maximum value” came out at 595 min.
